# Patent US20100311668A1, “PERSONAL CARE AND COSMETIC COMPOSITION CONTAINING TETRAPEPTIDES WITH THE MOTIFS GX1X2G, PX1X2P, OR PX1X2K” (EVONIK GOLDSCHMIDT GMBH, priority 2007, published 2010)
# Ends that are not written are not given here.
# Key:
# [1] = tested on: collagen 1 alpha-1 (COL1A1); assay: Collagen 1 alpha-1 (COL1A1) mRNA expression in human dermal fibroblasts, quantitative PCR; type: cell-based; conditions: HDFs, 1 μg/ml peptide, 24 hours, vs PBS control, normalized to 18S rRNA
# Procedure: (§1) FIG. 3: Collagen 1 alpha-1 (COL1A1) expression in human dermal fibroblasts (HDFs). […] Controls received PBS. Cells were harvested after 24 hours incubation and RNA was isolated. Expression of […] was determined by quantitative PCR. 18s rRNA served as house keeping gene for normalization. Given are means of three independent experiments.
# (§2) Therefore, HDFs prepared from neonatal foreskin were cultured in EMEM (Life Technologies GmbH, Eggenstein, Germany) supplemented with 5% fetal calf serum (Greiner, Frickenhausen, Germany), 0.1% 1-glutamine, 2.5% NaHCO3, and 1% streptomycin/amphotericin B in a humidified atmosphere containing 5% CO2 for 4 days until they reached confluence as described by Schieke et al. J Invest Dermatol 2002, 119: 1323-9. […]
# (§3) For isolation of total RNA RNeasy Total RNA Kits (Qiagen, Hilden; Germany) were used according to the manufacturer's guidelines. The RNA concentration was determined via photometric measurement at 260/280 (Biophotometer, Eppendorf, Hamburg, Germany).
# (§4) Aliquots of total RNA (100 ng) were applied for cDNA-Synthesis using Superscript™ III First-Strand synthesis system for the reverse transcription step with random […] (Invitrogen, Karlsruhe, Germany). […] Three independent experiments were performed with 3 determinations each and the mean value of these was calculated. […] Each sample was analyzed in double employing the universal protocol over 46 cycles. […]
# [2] = tested on: hyaluronic acid synthetase 1 (HAS1); assay: Hyaluronic acid synthetase 1 (HAS1) mRNA expression in human dermal fibroblasts, quantitative PCR; type: cell-based; conditions: HDFs, 1 μg/ml peptide, 24 hours, vs PBS control, normalized to 18S rRNA
# Procedure: as §1, with “2: Hyaluronic acid synthetase” for “3: Collagen”, “(HAS1)” for “alpha-1 (COL1A1)”
# as §2, §3, §4
# [3] = tested on: human dermal fibroblasts (HDFs); assay: Collagen production in human dermal fibroblasts, Sircol Soluble Collagen Assay of culture supernatants; type: cell-based; conditions: 1 μg/ml peptide, 24 hours, vs PBS control
# Procedure: FIG. 5: Collagen production in human dermal fibroblasts (HDFs). […] Controls received PBS. Cell culture supernatands were collected after 24 hours incubation. Amounts of collagen were determined as described above. Given are means of three independent experiments.
# Therefore, HDFs prepared from neonatal foreskin were cultured in EMEM (Life Technologies GmbH, Eggenstein, Germany) supplemented with 5% fetal calf serum (Greiner, Frickenhausen, Germany), 0.1% 1-glutamine, 2.5% NaHCO3, and 1% streptomycin/amphotericin B in a humidified atmosphere containing 5% CO2 for 4 days until they reached confluence as described by Schieke et al. J Invest Dermatol 2002, 119: 1323-9. For all studies, only early passage (<12) fibroblasts have been used to avoid changes in their original phenotype during subculture. Cells were kept in 6 well plates for culture. Peptides dissolved in PBS were added at concentrations of 1 μg/ml and incubated for 24 hours.
# The amount of collagen in cell culture supernatants was determined utilizing a Sircol™ Soluble Collagen Assay (# S1000) from Biocolor Ltd. (Newtownabbay, Northern Ireland, UK) following the guidelines of the manufacturer.
# [4] = tested on: collagen 1 alpha-2 (COL1A2); assay: Collagen 1 alpha-2 (COL1A2) mRNA expression in human dermal fibroblasts, quantitative PCR; type: cell-based; conditions: HDFs, 1 μg/ml peptide, 24 hours, vs PBS control, normalized to 18S rRNA
# Procedure: FIG. 4: Collagen 1 alpha-2 (COL1A2) expression in human dermal fibroblasts (HDFs). […] Controls received PBS. Cells were harvested after 24 hours incubation and RNA was isolated. […] 18s rRNA served as house keeping gene for normalization. Given are means of three independent experiments.
# Aliquots of total RNA (100 ng) were applied for cDNA-Synthesis using Superscript™ III First-Strand synthesis system for the reverse transcription step with random healers (Invitrogen, Karlsruhe, Germany). […] Three independent experiments were performed with 3 determinations each and the mean value of these was calculated. […] Each sample was analyzed in double employing the universal protocol over 46 cycles. […]
# fibronectin 1 (FN1) = assay: Fibronectin 1 (FN1) mRNA expression in human dermal fibroblasts, quantitative PCR; type: cell-based; conditions: HDFs, 1 μg/ml peptide, 24 hours, vs PBS control, normalized to 18S rRNA
# Procedure: as §1, with “1: Fibronectin” for “3: Collagen”, “(FN1)” for “alpha-1 (COL1A1)”
# as §2, §3, §4
# [5] = tested on: proinflammatory cytokines; assay: Inhibition of UV-induced expression of proinflammatory cytokines
# collagen = conditions: prior-art product background; cited from earlier work
substance,measurement,setting,value
"GAGP [SEQ ID NO:11, tetrapeptide GAGP]",COL1A1 expression,[1],Strongest effects
"GEKG (also: N-acyl group, acyl not given here) [SEQ ID NO:3, tetrapeptide GEKG]",HAS1 expression,[2],strongest effects
same,collagen production (collagen protein in cell culture supernatants),[3],markedly increased production of collagen
"GEPG (also: N-acyl group, acyl not given here) [SEQ ID NO:1, tetrapeptide GEPG]",HAS1 expression,[2],strongest effects
same,COL1A2 expression,[4],triggering effects
"GPPG (also: N-acyl group, acyl not given here) [SEQ ID NO:2, tetrapeptide GPPG]",FN1 expression,fibronectin 1 (FN1),strongest effects
"PGPP (also: N-acyl group, acyl not given here) [SEQ ID NO:4, tetrapeptide PGPP]",FN1 expression,fibronectin 1 (FN1),strongest effects
same,COL1A2 expression,[4],triggering effects
same,collagen production (collagen protein in cell culture supernatants),[3],markedly increased production of collagen
"PKEK (also: N-acyl group, acyl not given here) [tetrapeptide PKEK]",inhibition of UV-induced expression of proinflammatory cytokines,[5],inhibition of UV-induced expression of proinflammatory cytokines
Val-Trp,collagen stimulating activity,collagen,no significant collagen stimulating activity
